The results in this text go back to PMC5397059, “Design, synthesis and structure-activity relationship study of wollamide B; a new potential anti TB agent” (PLoS ONE, 2017).

The conditions of the series: amide bond, 18-membered ring, HATU/HOBt/DIEA.

Molecules are shown by their SMILES. Where two headings read alike, the source gives them in different places.

`CC[C@H](C)[C@@H]1NC(=O)[C@@H](CC(C)C)NC(=O)[C@H](CC(C)C)NC(=O)[C@H](Cc2cn(C(=O)OC(C)(C)C)c3ccccc23)NC(=O)[C@@H](CCCNC(=N)NS(=O)(=O)c2c(C)c(C)c3c(c2C)CC(C)(C)O3)NC(=O)[C@H](CC(=O)NC(c2ccccc2)(c2ccccc2)c2ccccc2)NC1=O` [cyclo (D-Leu-Ile-Asn(Trt)-D-Arg (Pbf)-Trp(Boc)-Leu)] gave a ring closure, isolated yield (from H-dLeu-Ile-Asn(Trt)-dArg(Pbf)-Trp(Boc)-Leu-OH) of 70%. Take `CC[C@H](C)[C@@H]1NC(=O)[C@@H](CC(C)C)NC(=O)[C@H](CC(C)C)NC(=O)[C@H](Cc2cn(C(=O)OC(C)(C)C)c3ccccc23)NC(=O)[C@@H](CCCNC(=O)OC(C)(C)C)NC(=O)[C@H](CC(=O)NC(c2ccccc2)(c2ccccc2)c2ccccc2)NC1=O` [cyclo (D-Leu-Ile-Asn(Trt)-D-Orn(Boc)-Trp(Boc)-Leu)]: the ring closure, isolated yield (from H-dLeu-Ile-Asn(Trt)-dOrn(Boc)-Trp(Boc)-Leu-OH) turned out to be 52%. Turning to `CSCC[C@@H]1NC(=O)[C@@H](CC(C)C)NC(=O)[C@H](CC(C)C)NC(=O)[C@H](Cc2cn(C(=O)OC(C)(C)C)c3ccccc23)NC(=O)[C@@H](CCCNC(=O)OC(C)(C)C)NC(=O)[C@H](CC(=O)NC(c2ccccc2)(c2ccccc2)c2ccccc2)NC1=O` [cyclo (D-Leu-Met-Asn(Trt)-D-Orn(Boc)-Trp(Boc)-Leu)], for the setting “from H-dLeu-Met-Asn(Trt)-dOrn(Boc)-Trp(Boc)-Leu-OH”, the ring closure, isolated yield was found to be 40%. For the molecule `CC(C)C[C@@H]1NC(=O)[C@H](Cc2cn(C(=O)OC(C)(C)C)c3ccccc23)NC(=O)[C@@H](CCCNC(=O)OC(C)(C)C)NC(=O)[C@H](CC(=O)NC(c2ccccc2)(c2ccccc2)c2ccccc2)NC(=O)[C@H](C(C)C)NC(=O)[C@@H](CC(C)C)NC1=O` [cyclo (Trp (Boc)-D-Orn(Boc)-Asn(Trt)-Val-D-Leu-Leu)], the ring closure, isolated yield (from H-dLeu-Val-Asn(Trt)-dOrn(Boc)-Trp(Boc)-Leu-OH) stood at 68%.

Where the note is “from H-Trp(Boc)-MeLeu-dLeu-MeVal-Asn(Trt)-dOrn(Boc)-OH”, `CC(C)C[C@H]1NC(=O)[C@H](CC(C)C)N(C)C(=O)[C@H](Cc2cn(C(=O)OC(C)(C)C)c3ccccc23)NC(=O)[C@@H](CCCNC(=O)OC(C)(C)C)NC(=O)[C@H](CC(=O)NC(c2ccccc2)(c2ccccc2)c2ccccc2)NC(=O)[C@H](C(C)C)N(C)C1=O` [cyclo (Trp(Boc)-N-Me-Leu-D-Leu-N-Me-Val-Asn(Trt)-D-Orn(Boc))] returned a ring closure, isolated yield of 73%. For `CC(C)C[C@@H]1NC(=O)[C@H](C)NC(=O)[C@@H](CCCNC(=O)OC(C)(C)C)NC(=O)[C@H](CC(=O)NC(c2ccccc2)(c2ccccc2)c2ccccc2)NC(=O)[C@H](C(C)C)NC(=O)[C@@H](CC(C)C)NC1=O` [cyclo(Ala-D-Orn (Boc)-Asn(Trt)-Val-D-Leu-Leu)], the ring closure, isolated yield (from H-dLeu-Val-Asn(Trt)-dOrn(Boc)-Ala-Leu-OH) is 43%. Turning to `CC(C)C[C@H]1NC(=O)[C@@H](Cc2ccc(Cl)cc2)NC(=O)[C@H](Cc2cn(C(=O)OC(C)(C)C)c3ccccc23)NC(=O)[C@@H](CCCNC(=O)OC(C)(C)C)NC(=O)[C@H](CC(=O)NC(c2ccccc2)(c2ccccc2)c2ccccc2)NC(=O)[C@H](C(C)C)NC1=O` [cyclo(Asn(Trt)-D-Orn(Boc)-Trp(Boc)-D-Phe(4-Cl)-D-Leu-Val)], under “from H-Asn(Trt)-dOrn(Boc)-Trp(Boc)-dPhe(4-Cl)-dLeu-Val-OH”, the ring closure, isolated yield was found to be 54%.

Consider `CC[C@H](C)[C@@H]1NC(=O)[C@H](Cc2cn(C(=O)OC(C)(C)C)c3ccccc23)NC(=O)[C@@H](CCCNC(=O)OC(C)(C)C)NC(=O)[C@H](CC(=O)NC(c2ccccc2)(c2ccccc2)c2ccccc2)NC(=O)[C@H](C(C)C)NC(=O)[C@@H](CC(C)C)NC1=O` [cyclo(Asn(Trt)-D-Orn(Boc)-Trp(Boc)-Ile-D-Leu-Val)], for which the ring closure, isolated yield (from H-Asn(Trt)-dOrn(Boc)-Trp(Boc)-Ile-dLeu-Val-OH) was 47%. For the setting “from H-Asn(Trt)-dOrn(Boc)-Trp(Boc)-Leu-Ile-Val-OH”, `CC[C@H](C)[C@@H]1NC(=O)[C@H](CC(C)C)NC(=O)[C@H](Cc2cn(C(=O)OC(C)(C)C)c3ccccc23)NC(=O)[C@@H](CCCNC(=O)OC(C)(C)C)NC(=O)[C@H](CC(=O)NC(c2ccccc2)(c2ccccc2)c2ccccc2)NC(=O)[C@H](C(C)C)NC1=O` [cyclo(Asn(Trt)-D-Orn(Boc)-Trp(Boc)-Leu-Ile-Val)] came in with a ring closure, isolated yield of 47%. `CC[C@H](C)[C@@H]1NC(=O)[C@H]([C@@H](C)CC)NC(=O)[C@@H](CC(C)C)NC(=O)[C@H](CC(C)C)NC(=O)[C@H](Cc2cn(C(=O)OC(C)(C)C)c3ccccc23)NC(=O)[C@@H](CCCNC(=O)OC(C)(C)C)NC1=O` [cyclo(D-Leu-Ile-Ile-D-Orn(Boc)-Trp(Boc)-Leu)] came in with a ring closure, isolated yield (from H-dLeu-Ile-Ile-dOrn(Boc)-Trp(Boc)-Leu-OH) of 54%. The molecule `CC(C)C[C@@H]1NC(=O)[C@H](Cc2cn(C(=O)OC(C)(C)C)c3ccccc23)NC(=O)[C@@H](CCCNC(=O)OC(C)(C)C)NC(=O)[C@H](CC(=O)NC(c2ccccc2)(c2ccccc2)c2ccccc2)NC(=O)[C@H](C(C)C)N(C)C(=O)[C@@H](CC(C)C)NC1=O` [cyclo(D-Leu-N-Me-Val-Asn(Trt)-D-Orn(Boc)-Trp(Boc)-Leu)] had a ring closure, isolated yield (from H-dLeu-MeVal-Asn(Trt)-dOrn(Boc)-Trp(Boc)-Leu-OH) of 60%. As to `COc1ccc(C[C@@H]2NC(=O)[C@@H](CCCNC(=O)OC(C)(C)C)NC(=O)[C@H](CC(=O)NC(c3ccccc3)(c3ccccc3)c3ccccc3)NC(=O)[C@H](C(C)C)NC(=O)[C@@H](CC(C)C)NC(=O)[C@H](CC(C)C)NC2=O)cc1` [cyclo(D-Leu-Val-Asn(Trt)-D-Orn(Boc)-Phe(4-OMe)-Leu)], the ring closure, isolated yield (from H-dLeu-Val-Asn(Trt)-dOrn(Boc)-Phe(4-OMe)-Leu-OH) was 41%.

The molecule `CC(C)C[C@@H]1NC(=O)[C@H](Cc2cn(C(=O)OC(C)(C)C)c3ccccc23)NC(=O)[C@@H](CCCNC(=O)OC(C)(C)C)NC(=O)[C@@H](CCCNC(=O)OC(C)(C)C)NC(=O)[C@H](C(C)C)NC(=O)[C@@H](CC(C)C)NC1=O` [cyclo(D-Leu-Val-D-Orn(Boc)-D-Orn(Boc)-Trp(Boc)-Leu)] returned a ring closure, isolated yield (from H-dLeu-Val-dOrn(Boc)-dOrn(Boc)-Trp(Boc)-Leu-OH) of 40%. For `CC[C@H](C)[C@@H]1NC(=O)[C@@H](Cc2ccc(Cl)cc2)NC(=O)[C@H](CC(C)C)NC(=O)[C@H](Cc2cn(C(=O)OC(C)(C)C)c3ccccc23)NC(=O)[C@@H](CCCNC(=O)OC(C)(C)C)NC(=O)[C@@H](CCCNC(=O)OC(C)(C)C)NC1=O` [cyclo(D-Phe (4-Cl)-Ile-D-Orn(Boc)-D-Orn(Boc)-Trp(Boc)-Leu)], where the note is “from H-dPhe(4-Cl)-Ile-dOrn(Boc)-dOrn(Boc)-Trp(Boc)-Leu-OH”, the ring closure, isolated yield amounted to 55%. On to `CC(C)C[C@@H]1NC(=O)[C@H](Cc2cn(C(=O)OC(C)(C)C)c3ccccc23)NC(=O)[C@@H](CCCNC(=O)OC(C)(C)C)NC(=O)[C@H](CC(=O)NC(c2ccccc2)(c2ccccc2)c2ccccc2)NC(=O)[C@H](C(C)C)NC(=O)[C@@H](Cc2ccc(Cl)cc2)NC1=O` [cyclo(D-Phe(4-Cl)-Val-Asn(Trt)-D-Orn(Boc)-Trp(Boc)-Leu)], for which the ring closure, isolated yield (from H-dPhe(4-Cl)-Val-Asn(Trt)-dOrn(Boc)-Trp(Boc)-Leu-OH) came to 53%. In the case of `CC(C)C[C@@H]1NC(=O)[C@@H](CC(C)C)NC(=O)[C@H](C(C)C)NC(=O)[C@H](CC(=O)NC(c2ccccc2)(c2ccccc2)c2ccccc2)NC(=O)[C@@H](CCCNC(=O)OC(C)(C)C)NC(=O)[C@H](Cc2cn(C(=O)OC(C)(C)C)c3ccccc23)NC1=O` [cyclo(Trp (Boc)-D-Orn (Boc)-Asn(Trt)-Val-D-Leu-Leu)], the ring closure, isolated yield (from H-Trp(Boc)-dOrn(Boc)-Asn(Trt)-Val-dLeu-Leu-OH, DMF, 1.0 mM) came to 50%.

`CC(C)C[C@H]1NC(=O)[C@H](C)NC(=O)[C@H](Cc2cn(C(=O)OC(C)(C)C)c3ccccc23)NC(=O)[C@@H](CCCNC(=O)OC(C)(C)C)NC(=O)[C@H](CC(=O)NC(c2ccccc2)(c2ccccc2)c2ccccc2)NC(=O)[C@H](C(C)C)NC1=O` [cyclo(Trp (Boc)-D-Orn(Boc)-Asn(Trt)-Val-D-Leu-Ala)] showed a ring closure, isolated yield (from H-dLeu-Val-Asn(Trt)-dOrn(Boc)-Trp(Boc)-Ala-OH) of 45%.

For the setting “from H-dLeu-Val-Ala-dOrn(Boc)-Trp(Boc)-Leu-OH”, `CC(C)C[C@@H]1NC(=O)[C@H](Cc2cn(C(=O)OC(C)(C)C)c3ccccc23)NC(=O)[C@@H](CCCNC(=O)OC(C)(C)C)NC(=O)[C@H](C)NC(=O)[C@H](C(C)C)NC(=O)[C@@H](CC(C)C)NC1=O` [cyclo(Trp(Boc)-D-Orn(Boc)-Ala-Val-D-Leu-Leu)] yielded a ring closure, isolated yield of 56%. As to `CC(C)C[C@@H]1NC(=O)[C@H](Cc2cn(C(=O)OC(C)(C)C)c3ccccc23)NC(=O)[C@@H](CCCNC(=O)OC(C)(C)C)NC(=O)[C@H](CC(=O)NC(c2ccccc2)(c2ccccc2)c2ccccc2)NC(=O)[C@H](C)NC(=O)[C@@H](CC(C)C)NC1=O` [cyclo(Trp(Boc)-D-Orn(Boc)-Asn(Trt)-Ala-D-Leu-Leu)], the ring closure, isolated yield (from H-dLeu-Ala-Asn(Trt)-dOrn(Boc)-Trp(Boc)-Leu-OH) is 56%. Under “from H-dAla-Val-Asn(Trt)-dOrn(Boc)-Trp(Boc)-Leu-OH”, `CC(C)C[C@@H]1NC(=O)[C@H](Cc2cn(C(=O)OC(C)(C)C)c3ccccc23)NC(=O)[C@@H](CCCNC(=O)OC(C)(C)C)NC(=O)[C@H](CC(=O)NC(c2ccccc2)(c2ccccc2)c2ccccc2)NC(=O)[C@H](C(C)C)NC(=O)[C@@H](C)NC1=O` [cyclo(Trp(Boc)-D-Orn(Boc)-Asn(Trt)-Val-D-Ala-Leu)] came in with a ring closure, isolated yield of 64%.
